Assays:
[1] = tested on: C57BL/6J mice; assay: Amphetamine-induced locomotor activity, co-injection, C57BL/6J mice; format: in vivo; conditions: 60 min
Method: (§1) Experimentally naïve mice, of at least 12 weeks of age, were used for all behavioral experiments. The mice were randomly assigned to treatment or control groups, balanced by sex and weight. Locomotor activity was assessed using the automated locomotor analysis monitors (Omnitech Electronics, Columbus, OH, United States). The apparatus included four open field monitors. Each Open Field monitor consisted of sets of 16 light beams arrayed in the horizontal X and Y axes. The hardware detected beams broken by the animal, which allowed the software to determine the location of the mouse in the cage. Total distance covered by mice was used to characterize locomotor activity of the animals. The monitors were divided into four compartments (20 cm × 20 cm). Animals were tested individually for defined periods with 5-min intervals. The mice were first weighed and then placed into the apparatus, allowing for 30 min habituation. Following the habituation, the mice were removed from the al apparatus and injected with drugs (see below for administration) or vehicle and returned immediately to the locomotor chamber. The locomotor activity was then measured for additional 1 h. After the experiments, the animals were euthanized by cervical dislocation.
All drug solutions were prepared freshly on the day of the experiment and injected i.p. at the volume of 10 ml/kg. […] Amphetamine was dissolved in 0.9% saline at a concentration of 0.2 mg/mL.
The effect of compound 22 (5, 15, 20, 30, and 50 mg/kg) on locomotor activity, in mice, in combination to a single, sub-maximal dose of amphetamine (2 mg/kg) was carried out (Figure 2). […] Although not significant, there was a trend toward an increase in locomotor activity at the dose of 5 mg/kg as well (28% increase, p = 0.32).
FIGURE 2 In vivo studies with compound 22 co-injected with amphetamine in WT mice. Wild type C57BL/6J mice were first habituated for 30 min followed by the co-injection of amphetamine (2 mg/kg) and saline or compound 22 at doses 5, 15, 20, 25, 30, and 50 mg/kg. The locomotor activity was assessed for 60 min after the injection. (A) Locomotor activity over time for 2 mg/kg amphetamine only or co-injected with 5, 15, or 20 mg/kg compound 22; (B) locomotor activity over time for 2 mg/kg amphetamine only or co-injected with 30 or 50 mg/kg compound 22; (C) sum of locomotor activity over 60 min after the injection of amphetamine and compound 22. Data are means ± SEM; N = 12–18 for compound 22 treated alone and N = 66 for amphetamine treated alone. A one way ANOVA was performed [F(5,126) = 4.788, p = 0.0005] followed by Dunnett’s post hoc analyses (^∗p < 0.05, ^∗∗∗p < 0.001).

[2] = tested on: TAAR1-KO mice; assay: Stereotypic counts, co-injection with cocaine, TAAR1-KO mice; format: in vivo; conditions: 5, 15 and 25 mg/kg co-injected with cocaine 10 mg/kg
Method: as §1, with “Following the habituation, the mice were removed from the al apparatus and injected with drugs (see below for administration) or vehicle and returned immediately to the locomotor chamber.” left out, “After the experiments, the animals were euthanized by cervical dislocation.” left out
Supplementary file Image_2.TIF: FIGURE S2 In vivo studies with TAAR1-KO mice and compound 22 on stereotypic counts activity. […] The sum of stereotypic counts was assessed over 60 min after the injection of amphetamine and compound 22 in WT (solid bars) or TAAR1-KO mice (spotted bars). […] The sum of stereotypic counts was assessed over 60 min following the injection in WT (solid bars) or TAAR1-KO mice (dotted bars). […]

## Clc1ccc(CNCc2ccc(Cn3cncn3)cc2)c(Cl)c1 [compound 22]
[1]; 5 mg/kg i.p. co-injected with amphetamine 2 mg/kg, not significant, p = 0.32
  increase in amphetamine-stimulated locomotor activity: 28%
[1]; 15 mg/kg i.p. co-injected with amphetamine 2 mg/kg, p = 0.04
  increase in amphetamine-stimulated locomotor activity: 44%
[1]; 20 mg/kg i.p. co-injected with amphetamine 2 mg/kg, p = 0.02
  increase in amphetamine-stimulated locomotor activity: 57%
[1]; 30 mg/kg i.p. co-injected with amphetamine 2 mg/kg, p = 0.0009
  increase in amphetamine-stimulated locomotor activity: 77%
[1]; 50 mg/kg i.p. co-injected with amphetamine 2 mg/kg
  change in amphetamine-stimulated locomotor activity: no difference in locomotor activity
[2]
  stereotypic counts: significant increases in stereotypic counts

Source: article PMC6131539, “Behavioral Effects of a Potential Novel TAAR1 Antagonist” (Frontiers in Pharmacology, 2018)
